From US8574865B2, “Methods and assays for identifying compounds that modulate protein-protein interactions” (Sanofi, priority 2007, dated 2013)
“Also recorded” adds a separate entry of the source.

Experiments:
ADRB2 = biological target: T1, ADRB2 (Homo sapiens, UniProt P07550); assay: GPCR Per-Luc assay, HEK293 cells stably expressing Arr-luc234V233 and transiently transfected with ADRB2-TEV; format: cell-based; settings: different concentrations, two hours
T1 construct: expressed in transfected cells

[1] = system: Endogenous receptor EDG in HEK293 cells; assay: FLIPR and cAMP assays; settings: HEK293 endogenous EDG receptors
V2 vasopressin receptor = biological target: T2, V2 vasopressin receptor (Homo sapiens, UniProt P30518); assay: GPCR Per-Luc assay, HEK293 cells stably expressing Arr-luc234V233 and transfected with V2-TEV; format: cell-based; settings: different concentrations, two hours
T2 construct: expressed in transfected cells; host or cells: HEK293 stably expressing Arr-luc234V233
T2 sequence (P30518 whole entry): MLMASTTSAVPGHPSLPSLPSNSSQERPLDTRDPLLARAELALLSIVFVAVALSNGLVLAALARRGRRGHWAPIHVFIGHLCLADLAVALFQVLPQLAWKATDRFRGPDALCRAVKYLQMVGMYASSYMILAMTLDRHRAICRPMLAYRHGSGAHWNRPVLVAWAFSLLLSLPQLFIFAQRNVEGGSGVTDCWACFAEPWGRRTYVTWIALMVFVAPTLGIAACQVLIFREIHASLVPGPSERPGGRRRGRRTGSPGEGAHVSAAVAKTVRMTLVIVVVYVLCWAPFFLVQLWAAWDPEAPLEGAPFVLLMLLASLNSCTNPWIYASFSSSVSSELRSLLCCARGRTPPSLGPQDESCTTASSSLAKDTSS
Protocol: HEK cells stably transfected with an arrestin/permuted luciferase construct were transiently transfected with a V2-TEV construct and induced with the agonist, 8AVP, arginine vasopressin (left graph).
Bright-GLO™ luciferase reagent was added to cells.

T1 sequence (P07550 whole entry): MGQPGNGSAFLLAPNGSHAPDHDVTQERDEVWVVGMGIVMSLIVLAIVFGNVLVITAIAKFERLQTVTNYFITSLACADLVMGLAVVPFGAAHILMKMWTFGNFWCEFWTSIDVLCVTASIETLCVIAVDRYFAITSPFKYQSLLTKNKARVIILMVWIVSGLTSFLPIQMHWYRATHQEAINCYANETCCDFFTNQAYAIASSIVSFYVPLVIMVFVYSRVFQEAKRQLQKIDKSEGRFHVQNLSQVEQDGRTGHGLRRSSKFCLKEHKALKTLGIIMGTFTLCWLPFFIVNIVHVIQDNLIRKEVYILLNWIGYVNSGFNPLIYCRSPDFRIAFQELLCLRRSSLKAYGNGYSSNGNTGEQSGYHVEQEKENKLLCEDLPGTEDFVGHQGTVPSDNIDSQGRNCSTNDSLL

Q: Which results are given for CCCCCCCCCCCCC/C=C/[C@@H](O)[C@@H](N)COP(=O)(O)O [S1P, sphingosine-1-phosphate]?
A: luciferase activity, compound alone (ADRB2): did not affect the luciferase activity; signal in FLIPR and cAMP assays [1]: did produce positive signals

Q: CCOc1ccc2c(c1)C1(CCC(OCCN3CCOCC3)CC1)C(=O)N2S(=O)(=O)c1ccc(C(=O)NC(C)(C)C)cc1OC (stereo not drawn) [SR121463] was tested. Which “luciferase activity (β arrestin recruitment to V2)” value (V2 vasopressin receptor) did it give?
A: increasing levels of luminescence were observed with increasing amounts; also recorded: induced a G protein-independent, arrestin-dependent signal
